The text below walks through data of ChEMBL document CHEMBL3232856, “Endomorphin analogues with mixed μ-opioid (MOP) receptor agonism/δ-opioid (DOP) receptor antagonism and lacking β-arrestin2 recruitment activity” (Bioorg Med Chem, 2014).

Calls of active or inactive are those of the source. The calls are words filed in the database; no cut-off is given here. Residues, ends and D or L forms follow the SMILES beside them.

The target of assay [1] is T1, Mu-type opioid receptor (Homo sapiens, UniProt P35372). The note with it: HEK293, at 1 µM.
For assay [2], the target named is T1, Mu-type opioid receptor. The assay is described as follows: Agonist activity at GFP-fused mu opioid receptor (unknown origin) expressed in HEK293 cells assessed as recruitment of beta-arrestin-2 after 10 mins by BRET assay. In kind it is cell-based. Conditions: hek293.
The target of assay [3] is T2, Delta-type opioid receptor (Homo sapiens, UniProt P41143). The note with it: HEK293, at 0.1 to 10 µM.
Assay [4] deals with Mu-type opioid receptor (Rattus norvegicus, UniProt P33535). The assay is described as follows: Displacement of [3H]DAMGO from mu opioid receptor in Sprague-Dawley rat brain P2 synaptosomal membranes.
The target of assay [5] is T2, Delta-type opioid receptor. The note with it: HEK293, at 100 µM.
In assay [6] the target is T2, Delta-type opioid receptor. The assay is described as follows: Agonist activity at GFP-fused delta opioid receptor (unknown origin) expressed in HEK293 cells assessed as recruitment of beta-arrestin-2 after 10 mins by BRET assay. In kind it is functional, cell-based.
Assay [7] addresses Mu-type opioid receptor (Cavia porcellus, UniProt P97266). The assay is described as follows: Agonist activity at mu opioid receptor in guinea pig ileum assessed as inhibition of electrically-stimulated muscle contraction. In kind it is tissue-based.
Assay [8] concerns the target Delta-type opioid receptor (Rattus norvegicus, UniProt P33533). Put plainly: Displacement of [3H]deltorphin-2 from delta opioid receptor in Sprague-Dawley rat brain P2 synaptosomal membranes.
Assay [9] deals with T3, Kappa-type opioid receptor (Homo sapiens, UniProt P41145). The note with it: HEK293, at 0.1 to 10 µM.
Assay [10] addresses T2, Delta-type opioid receptor. The note with it: HEK293, at 100 µM. This is another data set of the same source.
Assay [11] concerns the target T3, Kappa-type opioid receptor. Put plainly: Agonist activity at GFP-fused kappa opioid receptor (unknown origin) expressed in HEK293 cells assessed as recruitment of beta-arrestin-2 after 10 mins by BRET assay. The format is cell-based.
Assay [12] has as its target Delta-type opioid receptor (Mus musculus, UniProt P32300). The assay is described as follows: Agonist activity at delta opioid receptor in mouse vas deferens assessed as inhibition of electrically-stimulated muscle contraction. In kind it is tissue-based.
The target of assay [13] is T1, Mu-type opioid receptor. The note with it: HEK293, at 100 µM.

Delta-type opioid receptor (Mus musculus, UniProt P32300), sequence (P32300 whole entry): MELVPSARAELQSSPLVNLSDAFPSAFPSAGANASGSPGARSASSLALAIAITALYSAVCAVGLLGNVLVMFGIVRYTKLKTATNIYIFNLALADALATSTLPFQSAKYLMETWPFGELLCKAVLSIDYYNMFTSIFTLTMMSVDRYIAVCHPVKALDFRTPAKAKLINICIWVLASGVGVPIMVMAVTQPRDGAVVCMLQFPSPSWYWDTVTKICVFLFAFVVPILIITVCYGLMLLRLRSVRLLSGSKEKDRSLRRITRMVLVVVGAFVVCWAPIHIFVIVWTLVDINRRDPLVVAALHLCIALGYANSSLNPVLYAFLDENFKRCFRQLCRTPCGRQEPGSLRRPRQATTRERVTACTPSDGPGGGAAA
Mu-type opioid receptor (Rattus norvegicus, UniProt P33535), sequence (P33535 whole entry): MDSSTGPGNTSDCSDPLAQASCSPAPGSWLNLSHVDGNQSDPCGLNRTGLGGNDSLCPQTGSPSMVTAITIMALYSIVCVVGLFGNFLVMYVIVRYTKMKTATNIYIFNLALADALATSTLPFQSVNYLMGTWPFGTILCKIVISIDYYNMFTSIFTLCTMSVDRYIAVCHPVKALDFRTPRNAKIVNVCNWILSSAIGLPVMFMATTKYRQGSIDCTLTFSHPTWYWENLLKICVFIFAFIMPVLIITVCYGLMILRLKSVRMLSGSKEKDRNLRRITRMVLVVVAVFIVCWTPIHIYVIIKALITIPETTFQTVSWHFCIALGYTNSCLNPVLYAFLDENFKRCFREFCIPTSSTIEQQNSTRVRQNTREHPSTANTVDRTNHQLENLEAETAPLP
T1 sequence (P35372 whole entry, the tested form may be a part): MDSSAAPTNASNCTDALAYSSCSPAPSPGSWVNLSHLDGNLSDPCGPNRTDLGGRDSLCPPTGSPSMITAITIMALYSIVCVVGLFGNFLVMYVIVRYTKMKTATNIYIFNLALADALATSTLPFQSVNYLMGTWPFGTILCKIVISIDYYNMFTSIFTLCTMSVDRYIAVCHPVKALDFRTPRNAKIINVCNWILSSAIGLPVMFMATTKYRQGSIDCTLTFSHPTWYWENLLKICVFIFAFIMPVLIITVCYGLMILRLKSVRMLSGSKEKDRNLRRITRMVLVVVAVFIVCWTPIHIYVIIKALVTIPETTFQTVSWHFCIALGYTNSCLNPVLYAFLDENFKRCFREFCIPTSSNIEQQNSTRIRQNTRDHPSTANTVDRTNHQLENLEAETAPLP
Delta-type opioid receptor (Rattus norvegicus, UniProt P33533), sequence (P33533 whole entry): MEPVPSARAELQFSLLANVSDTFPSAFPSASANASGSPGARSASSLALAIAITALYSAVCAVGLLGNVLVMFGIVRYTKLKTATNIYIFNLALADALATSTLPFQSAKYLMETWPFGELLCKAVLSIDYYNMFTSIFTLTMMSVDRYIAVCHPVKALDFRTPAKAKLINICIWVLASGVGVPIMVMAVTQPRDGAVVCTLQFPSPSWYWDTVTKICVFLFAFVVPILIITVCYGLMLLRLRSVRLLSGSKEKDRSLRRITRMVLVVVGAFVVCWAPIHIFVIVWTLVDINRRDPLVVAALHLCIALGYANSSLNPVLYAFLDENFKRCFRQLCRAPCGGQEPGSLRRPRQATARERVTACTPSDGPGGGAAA
Mu-type opioid receptor (Cavia porcellus, UniProt P97266), sequence (P97266 whole entry): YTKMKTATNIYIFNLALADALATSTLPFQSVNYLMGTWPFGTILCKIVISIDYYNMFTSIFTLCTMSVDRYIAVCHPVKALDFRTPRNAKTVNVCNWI
T3 sequence (P41145 whole entry): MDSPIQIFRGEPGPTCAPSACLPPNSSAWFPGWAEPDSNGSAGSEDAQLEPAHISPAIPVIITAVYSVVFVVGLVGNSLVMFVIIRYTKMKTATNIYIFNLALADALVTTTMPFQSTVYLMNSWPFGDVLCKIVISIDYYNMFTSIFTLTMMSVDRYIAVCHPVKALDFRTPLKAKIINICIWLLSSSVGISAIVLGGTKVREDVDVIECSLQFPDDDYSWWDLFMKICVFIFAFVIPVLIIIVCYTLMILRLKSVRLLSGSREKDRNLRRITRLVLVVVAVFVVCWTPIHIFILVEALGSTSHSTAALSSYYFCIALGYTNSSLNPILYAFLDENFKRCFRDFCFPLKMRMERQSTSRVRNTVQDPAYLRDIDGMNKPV
T2 sequence (P41143 whole entry): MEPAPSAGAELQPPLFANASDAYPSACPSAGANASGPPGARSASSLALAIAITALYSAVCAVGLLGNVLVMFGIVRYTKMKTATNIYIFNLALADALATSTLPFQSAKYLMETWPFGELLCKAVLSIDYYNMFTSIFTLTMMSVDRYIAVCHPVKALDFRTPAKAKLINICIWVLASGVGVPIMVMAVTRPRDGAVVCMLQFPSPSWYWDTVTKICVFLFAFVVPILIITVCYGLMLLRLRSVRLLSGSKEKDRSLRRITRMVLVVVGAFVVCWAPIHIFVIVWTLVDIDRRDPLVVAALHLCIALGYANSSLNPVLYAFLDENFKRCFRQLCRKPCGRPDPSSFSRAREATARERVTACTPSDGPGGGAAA

On to `Cc1cc(C)c(C[C@H](NC(=O)[C@H](Cc2c(C)cc(C)cc2C)NC(=O)[C@@H]2CCCN2C(=O)[C@@H](N)Cc2c(C)cc(O)cc2C)C(N)=O)c(C)c1`, for which the inhibition entry (on Mu-type opioid receptor [1]; in assay [5]; in [10]) was “Active” in each case. Also, the EC50 result (at Mu-type opioid receptor [2]; in assay [6]; in [11]) was “Not Active” throughout. For the same compound, the inhibition entry in [3] and in assay [9] was “inactive” each time. Also, the inhibition constant (Ki) was 0.47 nM at Mu-type opioid receptor [4] and 1.63 nM in [8]. The IC50 at Mu-type opioid receptor [7] is 9.28 nM; in assay [12], greater than 10000 nM.
Regarding `Cc1cc(O)cc(C)c1C[C@H](N)C(=O)N1CCC[C@H]1C(=O)N[C@@H](Cc1ccccc1)C(=O)N[C@@H](Cc1ccc2ccccc2c1)C(N)=O` (HELM PEPTIDE1{[Cc1cc(O)cc(C)c1C[C@H](N)C(=O)[*:2]].P.F.[O=C([C@H](Cc1ccc2ccccc2c1)N[*:1])[*:2]].[am]}$$$$V2.0), the inhibition entry at Mu-type opioid receptor [1] and on Mu-type opioid receptor [13] was “Active” throughout. The EC50 result (at Mu-type opioid receptor [2]; in [6]; in [11]) was “Not Active” each time. Besides, the inhibition entry in [3], in assay [5], in [9] and in [10] was “inactive” throughout. The figures for the Ki (on Mu-type opioid receptor [4]; in assay [8]) were 0.81 nM and 23.2 nM, respectively. The results for the IC50 (at Mu-type opioid receptor [7]; in [12]) were 40.2 nM and greater than 10000 nM, respectively.
Consider `C[C@@H](NC(=O)[C@@H](N)Cc1ccc(O)cc1)C(=O)NCC(=O)N(C)[C@@H](Cc1ccccc1)C(=O)NCCO`, for which the inhibition result on Mu-type opioid receptor [1] is “Active”.
Turning to `Cc1cc(O)cc(C)c1C[C@H](N)C(=O)N1CCC[C@H]1C(=O)N[C@@H](Cc1cccc2ccccc12)C(N)=O` (HELM PEPTIDE1{[Cc1cc(O)cc(C)c1C[C@H](N)C(=O)[*:2]].P.[O=C([C@H](Cc1cccc2ccccc12)N[*:1])[*:2]].[am]}$$$$V2.0), the EC50 result (on Mu-type opioid receptor [2]; in [6]; in assay [11]) was “Not Active” in each case. Also, the inhibition constant (Ki) at Mu-type opioid receptor [4] worked out at 0.7 nM; in [8] it was 121 nM. Also, the IC50 stood at 4.63 nM on Mu-type opioid receptor [7] and 10000 nM in assay [12].
Consider `Cc1cccc(C)c1C[C@H](NC(=O)[C@@H]1CCCN1C(=O)[C@@H](N)Cc1c(C)cc(O)cc1C)C(N)=O` (HELM PEPTIDE1{[Cc1cc(O)cc(C)c1C[C@H](N)C(=O)[*:2]].P.[Cc1cccc(C)c1C[C@H](N[*:1])C(=O)[*:2]].[am]}$$$$V2.0), for which the EC50 result (on Mu-type opioid receptor [2]; in assay [6]; in assay [11]) was “Not Active” in each case. In addition, the Ki is 0.15 nM on Mu-type opioid receptor [4] and 33 nM in assay [8]. Moreover, the IC50 was found to be 0.274 nM on Mu-type opioid receptor [7] and 745 nM in assay [12].
`Oc1ccc2c3c1O[C@H]1c4oc5ccccc5c4C[C@@]4(O)[C@@H](C2)N(CC2CC2)CC[C@]314` showed an inhibition in [5] of 50%.
Regarding `Cc1cc(O)cc(C)c1C[C@H](NC(=O)[C@H](Cc1ccccc1)NC(=O)[C@@H]1CCCN1C(=O)[C@@H](N)Cc1c(C)cc(O)cc1C)C(N)=O` (HELM PEPTIDE1{[Cc1cc(O)cc(C)c1C[C@H](N)C(=O)[*:2]].P.F.[Cc1cc(O)cc(C)c1C[C@H](N[*:1])C(=O)[*:2]].[am]}$$$$V2.0), on Mu-type opioid receptor [1], the inhibition result was “Active”. In addition, the EC50 entry (at Mu-type opioid receptor [2]; in assay [6]; in [11]) was “Not Active” throughout. Moreover, the inhibition result (in assay [3]; in [5]; in assay [9]; in assay [10]; at Mu-type opioid receptor [13]) was “inactive” in each case. Also, the Ki amounted to 0.28 nM at Mu-type opioid receptor [4] and 87.2 nM in assay [8]. For the same compound, the IC50 was 44.6 nM at Mu-type opioid receptor [7] and greater than 10000 nM in assay [12].
Regarding `Cc1cc(O)cc(C)c1C[C@H](N)C(=O)N1CCC[C@H]1C(=O)N[C@@H](Cc1ccccc1)C(=O)N[C@@H](Cc1c[nH]c2ccccc12)C(N)=O` (HELM PEPTIDE1{[Cc1cc(O)cc(C)c1C[C@H](N)C(=O)[*:2]].P.F.W.[am]}$$$$V2.0), the inhibition result on Mu-type opioid receptor [1] was “Active”. The EC50 result (on Mu-type opioid receptor [2]; in [6]; in [11]) was “Not Active” in each case. Moreover, the inhibition result (in assay [3]; in assay [5]; in assay [9]; in assay [10]; on Mu-type opioid receptor [13]) was “inactive” throughout. In addition, the inhibition constant Ki was determined as 0.34 nM on Mu-type opioid receptor [4] and 25.4 nM in assay [8]. The IC50 on Mu-type opioid receptor [7] was 207 nM; in assay [12], greater than 10000 nM.
Consider `Cc1cc(O)cc(C)c1C[C@H](N)C(=O)N1CCC[C@H]1C(=O)N[C@@H](Cc1ccccc1)C(=O)N[C@@H](Cc1cccc2ccccc12)C(N)=O` (HELM PEPTIDE1{[Cc1cc(O)cc(C)c1C[C@H](N)C(=O)[*:2]].P.F.[O=C([C@H](Cc1cccc2ccccc12)N[*:1])[*:2]].[am]}$$$$V2.0), for which, at Mu-type opioid receptor [1], the inhibition result was “Active”. For the same compound, the EC50 result (on Mu-type opioid receptor [2]; in assay [6]; in [11]) was “Not Active” each time. Moreover, the inhibition entry in [3], in assay [5], in assay [9] and in assay [10] was “inactive” throughout. The results for the Ki (on Mu-type opioid receptor [4]; in assay [8]) were 0.28 nM and 51.7 nM, respectively. In addition, the figures for the IC50 (on Mu-type opioid receptor [7]; in assay [12]) were 14.3 nM and greater than 10000 nM, respectively.
As for `Cc1cccc(C)c1C[C@H](NC(=O)[C@H](Cc1ccccc1)NC(=O)[C@@H]1CCCN1C(=O)[C@@H](N)Cc1c(C)cc(O)cc1C)C(N)=O`, at Mu-type opioid receptor [1], the inhibition result is “Active”. Also, the EC50 result (at Mu-type opioid receptor [2]; in assay [6]; in [11]) was “Not Active” throughout. Besides, the inhibition entry (in assay [3]; in assay [5]; in [9]; in assay [10]; on Mu-type opioid receptor [13]) was “inactive” each time. In addition, the Ki stood at 0.31 nM at Mu-type opioid receptor [4] and 40 nM in assay [8]. Besides, the IC50 on Mu-type opioid receptor [7] is 249 nM; in assay [12], greater than 10000 nM.
Consider `Cc1cc(O)cc(C)c1C[C@H](N)C(=O)N1CCC[C@H]1C(=O)N[C@@H](Cc1ccc2ccccc2c1)C(N)=O` (HELM PEPTIDE1{[Cc1cc(O)cc(C)c1C[C@H](N)C(=O)[*:2]].P.[O=C([C@H](Cc1ccc2ccccc2c1)N[*:1])[*:2]].[am]}$$$$V2.0), for which the inhibition result at Mu-type opioid receptor [1] is “Active”. For the same compound, the EC50 entry (on Mu-type opioid receptor [2]; in [6]; in assay [11]) was “Not Active” each time. For the same compound, the inhibition result in assay [3], in assay [5], in assay [9] and in assay [10] was “inactive” throughout. For the same compound, the figures for the Ki (at Mu-type opioid receptor [4]; in [8]) were 16.9 nM and 68.3 nM, respectively. Moreover, the IC50 (on Mu-type opioid receptor [7]; in [12]) was greater than 10000 nM throughout.
